Measured values from US20190231751A1, “TREATMENT OF FIBROTIC DISORDERS WITH JUN N-TERMINAL KINASE INHIBITORS” (Imago Pharmaceuticals, Inc., priority 2016, published 2019).

What was measured:
[1] = molecular target: JNK2 (Homo sapiens, UniProt P45984); test: In vitro JNK2 inhibition (Table 1); type: biochemical
Method: (§1) In vitro assays for the determination of JNK activities are known in the art and exemplary assay formats are described herein.
(§2) IC50 values in Table 1 were determined using the procedures as described in U.S. Pat. No. 8,450,353.

[2] = molecular target: JNK3 (Homo sapiens, UniProt P53779); test: In vitro JNK3 inhibition (Table 1); type: biochemical
Method: as §1, §2

[3] = system: thioacetamide-induced liver fibrosis; test: Thioacetamide-induced rat model of liver fibrosis; type: in vivo; conditions: 10 mg/kg/day p.o.
Method: The antifibrotic effects of IGP001 and IGP002 are also evaluated in a thioacetamide-induced rat model of liver fibrosis. Study assessments include body and liver/kidney weight, liver function test, liver/kidney morphology and collagen deposition, fibrogenic gene and protein expression, and pharmacokinetic analyses.

[4] = system: transgenic SREBP-1c model of NASH; test: Transgenic SREBP-1c model of NASH; type: in vivo, mice; conditions: 10 mg/kg/day p.o.
Method: The ability of IGP001 and IGP002 are tested in the transgenic SREBP-1c model of NASH. SREBP-1c is a lipogenic transcription factor, and overexpression creates a model of congenital lipodystrophy in which severe insulin resistance and diabetes develop secondary to impaired adipose differentiation (Shimomura I et al., Genes Dev 1998; 12: 3182-3194). In these mice, decreased fat tissue with lipid accumulation in the liver is observed, and marked hepatic steatosis occurs by […] of age. When fed a standard diet, steatosis, lobular inflammation, and perivenular and pericellular fibrosis develop at 20 weeks (Nakayama H, et al., Metabolism 2007; 56: 470-475; Takahashi Y, World J Gastroenterol. 2012 May 21; 18(19): 2300-2308).

[5] = system: bleomycin-induced lung fibrosis; test: Mouse bleomycin-induced lung fibrosis model, preventative study; type: in vivo; conditions: 10 mg/kg and 30 mg/kg b.i.d. oral gavage starting prior to bleomycin; 14 days
Method: Age and gender-matched wild type mice on the C57BL/6 background were utilized for this study, which is outlined in Table 1: Mice are housed in a sterile barrier facility at the Yale University School of Medicine and all proposed procedures are approved on existing mouse protocols. Mice were given a single inhaled dose of 1.25 Units/kg pharmacologic grade bleomycin (Teva Pharmaceuticals, Israel) in a volume of 50 μl. Mice received twice daily administered IGP001, via oral gavage, on a b.i.d. schedule starting prior to bleomycin treatment in this preventative study. Mice were sacrificed at 14 days following the administration of bleomycin and assessed as appropriate for the outcomes shown in Table 2: Briefly, lung inflammation was assessed by Bronchoalveolar lavage cell counts. Total soluble lung collagen will be quantified using Sircol Assay (Biocolour, Ireland). Formalin fixed, paraffin embedded mouse lung sections were stained with hematoxylin and eosin to assess gross morphology, morphometry, and Ashcroft scores and with Masson's trichrome stains to visualize collagen deposition.

[6] = system: SMAD2; test: TGF-β1-induced SMAD2 phosphorylation in HFL-1 cells (Western blot); type: cell-based, human; conditions: TGF-β1 1 ng/ml
Method: TGF-β1 factors initiate signaling by assembling receptor complexes that activate SMAD proteins. IGP001 and IGP002 are tested for their ability to suppress TGF-031 induction of SMAD signaling pathway by detecting the dually phosphorylated (Ser 465/Ser 467) form of SMAD2 by Western blotting against specific anti-phosphokinase antibody.
HFL-1 cells are created as described above in Example 3. HFL-1 cells are cultured with 0.1% DMSO (control vehicle), IGP001 or IGP002 for 30 min before stimulation with TGF-β1 (1 ng/ml) for 4 hours. Total RNA is extracted and hybridized with human CTGF probes, and messenger RNA levels are quantified by densitometry and optical density of CTGF mRNA band was corrected for G3PDH, and results are expressed as ratio (%) of control value (TGF-β1-stimulated HFL-1 cells).
Phosphorylation of SMAD2 following treatment with IGP001 or IGP002 are also determined by Western blotting whole cell lysates using an antibody specific for phosphorylated forms of SMAD2.

[7] = Rat PK/PD study: plasma compound levels by LC/MS; type: in vivo; conditions: female Wistar rats; kainic acid 60 minutes after compound; blood 4 hours post kainic acid
Method: Plasma compound levels for two of the JNK inhibitors, IGP001 (Formula (XXI)) and IGP002 (Formula (XXII)), were obtained using a rat model for pharmaceutical administration of the compounds. Female Wistar rats, 7-9 weeks old, were obtained (SLAC Laboratory Animal Co. Ltd., Shanghai, China), and three groups of animals (n=3 each) received 1) kainic acid and 2) either IGP001 in vehicle, IGP002 in vehicle, or vehicle alone. The animals received the kainic acid 60 minutes after they received the IGP001 in vehicle, IGP002 in vehicle, and or vehicle alone.
For administration, the kainic acid was dissolved in saline, and introduced to the rats using the protocol as generally disclosed in Tse K, Puttachary S, Beamer E, Sills G J, Thippeswamy T (2014) PLoS One 9:e96622. Animals in each group were surgically implanted with catheters in carotid artery using polyurethane tubing and heparin (50 IU/mL)/glucose (50%) solutions as the lumen lock solution. Anaesthetic barbital was used during the surgery. The animals were allowed to recover seven days after surgery.
The animals were euthanized 4 hours post kainic acid administration using CO2 inhalation and blood was collected via cardiac puncture. 5 mL blood was transferred into pre-labled plastic microcentrifuge tubes containing K2-EDTA (0.5M) as anti-coagulant. Plasma levels were determined by a validated LC/MS analysis.

Sequence of JNK2 (P45984 whole entry, species assumed): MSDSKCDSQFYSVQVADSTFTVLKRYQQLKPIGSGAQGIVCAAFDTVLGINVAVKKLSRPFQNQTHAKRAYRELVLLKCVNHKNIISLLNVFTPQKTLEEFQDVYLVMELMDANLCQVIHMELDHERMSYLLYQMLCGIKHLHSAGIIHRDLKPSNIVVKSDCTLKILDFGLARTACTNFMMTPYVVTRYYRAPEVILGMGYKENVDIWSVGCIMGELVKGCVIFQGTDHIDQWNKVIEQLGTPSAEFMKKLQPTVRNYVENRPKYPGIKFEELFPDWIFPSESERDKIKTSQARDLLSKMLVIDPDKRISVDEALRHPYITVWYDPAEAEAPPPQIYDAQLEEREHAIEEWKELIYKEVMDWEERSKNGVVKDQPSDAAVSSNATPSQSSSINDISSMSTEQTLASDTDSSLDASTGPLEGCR
Sequence of JNK3 (P53779 whole entry, species assumed): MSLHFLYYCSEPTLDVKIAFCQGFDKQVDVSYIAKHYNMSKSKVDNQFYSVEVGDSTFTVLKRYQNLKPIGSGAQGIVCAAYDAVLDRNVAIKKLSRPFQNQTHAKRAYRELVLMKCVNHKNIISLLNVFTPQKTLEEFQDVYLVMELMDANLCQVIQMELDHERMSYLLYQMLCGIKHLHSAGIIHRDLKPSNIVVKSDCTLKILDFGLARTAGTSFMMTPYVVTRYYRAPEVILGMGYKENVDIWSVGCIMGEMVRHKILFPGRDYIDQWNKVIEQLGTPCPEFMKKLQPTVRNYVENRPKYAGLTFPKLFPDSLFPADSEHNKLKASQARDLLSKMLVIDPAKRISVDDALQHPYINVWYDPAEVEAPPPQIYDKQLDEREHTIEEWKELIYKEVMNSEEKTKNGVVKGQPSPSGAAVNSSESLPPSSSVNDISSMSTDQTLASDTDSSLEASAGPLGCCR

IC50 [1]: < 100 nM
IC50 [2]: < 100 nM
Structure (SMILES): O=C(Cn1c(=O)ccc2cc(C(F)(F)F)ccc21)Nc1scc(Br)c1-c1nnc[nH]1 [IGP001, N-(4-bromo-3-(1H-1,2,4-triazol-5-yl)thiophen-2-yl)-2-(2-oxo-6-(trifluoromethyl)quinolin-1(2H)-yl)acetamide]
non-alcoholic fatty liver disease activity score ([3]; thioacetamide-induced NASH model): significantly reduce the non-alcoholic fatty liver disease activity score
collagen deposition ([3]; thioacetamide-induced model): significant reductions in collagen deposition
collagen type 1 protein and mRNA expression ([3]; thioacetamide-induced model): significant reductions in collagen deposition, and collagen type 1 protein and mRNA expression
collagen deposition [4]: significant reductions in collagen deposition
collagen type 1 protein and mRNA expression [4]: significant reductions in collagen deposition, and collagen type 1 protein and mRNA expression
deposited collagen (Masson's trichrome stain) [5]: reduced deposited collagen
amounts of phosphorylated SMAD2 [6]: significantly increase
plasma compound levels versus cellular EC50 [7]: sufficient compound in the plasma of treated animals to exceed cellular EC50 in the periphery
